These results are taken from patent publication US20140296153A1, “Oligodendrocyte Differentiation” (priority 2011, published 2014).

The target in one data set is CB1R (Homo sapiens, UniProt P21554). To be noted: cited from earlier work.
For data set [1], the system named is Olig2. The experiment in a line: Western blotting analysis of Olig2. Conditions: 7 days, n=8. The format is cell-based, mouse. The protocol:
Western blotting analysis of Olig2 was performed from 6- to 8-days-old neurospheres that were plated onto six-well plates previously coated with poly-D-lysine, and that were allowed to adhere for 48 h in the presence of SFM, and treated in the absence (control) or in the presence of Hp and/or AM251 for 7 days. For the evaluation of Olig2 protein levels in control versus Hp-treated condition, the medium was renewed after 48 h. Seven days after the first treatment, the cells were washed with 0.15M phosphate-buffered saline (PBS) and harvested by scraping in the lysis buffer [0.15 M NaCl, 0.05 M Tris-base, 5 mM EGTA, 1% Triton X-100, 0.5% DOC, 0.1% SDS, 10 mM dithiothreitol (DTT), containing a protease inhibitor cocktail tablet (Roche Diagnostics GmbH, Germany), pH7.4 at 4° C.].
The supernatant was collected after centrifugation at 14 000 rpm for 10 min, at 4° C. Protein concentration was measured by the BCA method and samples were treated with SDS-PAGE sample buffer [6× concentrated: 350 mM Tris, 10% (w/v) SDS, 30% (v/v) glycerol, 0.6 M DTT, 0.06% (w/v) bromophenol blue], boiled 5 min at 95° C., and stored at −20° C. until use for Western blotting analysis. […]
For orientation: A western blot detects proteins with antibodies after separation by electrophoresis.

Data set [2] relates to SVZ cells. The experiment in a line: SVZ self-renewal assay (secondary neurospheres). Format: cell-based, mouse. Conditions: primary neurospheres exposed to Hp 1 μM for 6 days, replated without Hp.
Method: Neurosphere forming and self-renewal assays were performed on SVZ cells seeded at clonal density, 2500 cells per well in 24-well cell culture plates in SFM containing 5 ng/ml EGF and 2.5 ng/ml FGF-2 and supplemented or not (control) with 1 μM Hp or 50 ng.ml^−1 hepatocyte growth factor (carrier free recombinant human HGF, R&D Systems, Lille, France). After 6 days, the numbers of primary neurospheres were determined. For self-renewal assay, neurospheres were collected, dissociated as single cells and seeded in SFM containing 5 ng/ml EGF and 2.5 ng/ml FGF-2 in 24 well plates. After 6 days, the number of secondary neurospheres was counted.
For the SVZ neurosphere forming and self-renewal assays the experiments were replicated in five independent culture preparations and each experimental condition was assayed in four different coverslips.
The test system of data set [3] is Olig2. The experiment in a line: Immunocytochemistry for Olig2. The format is cell-based, mouse. To be noted: Hp treatment. The protocol: Cells were fixed for 30 minutes in 4% paraformaldehyde in phosphate-buffered saline (PBS), permeabilized and blocked for non-specific binding sites for 1 h with 0.25% Triton X-100 (Sigma) and 3% bovine serum albumin (BSA, Sigma) dissolved in PBS. Cells were then subsequently incubated overnight at 4° C. with the following antibodies: rabbit polyclonal anti-CB1R (1:200, Proteimax), mouse monoclonal anti-nestin (1:200, Chemicon, Temecula, Calif., USA), mouse monoclonal anti-GFAP (1:500, Cell Signaling Technology, Danvers, Mass., USA) and rabbit polyclonal anti-Olig2 (1:200, Millipore, Billerica, Mass., USA). Thereafter, the cover slips were rinsed in PBS and incubated for 1 h at RT with the appropriate secondary antibodies: anti-rabbit IgG labeled with Alexa Fluor 488 (1:200) or anti-mouse IgG labeled with Alexa Fluor 594 (1:200) (both from Molecular Probes). After rinsing with PBS, cell preparations were incubated 5 min at RT with Hoechst 33342 (2 μg/mL, Molecular Probes) in PBS, for nuclear staining. Finally, the preparations were mounted using Dakocytomation fluorescent medium (Dakocytomation, Carpinteria, Calif., USA). Fluorescence images were recorded using a digital camera coupled to an Axioskop microscope (Carl Zeiss).

The subject of data set [4] is SVZ cells. The experiment in a line: TUNEL apoptosis assay in SVZ cell cultures. The format is cell-based, mouse. Conditions: for TUNEL-positive nuclei: 48 hours. The protocol: Six- to 8-day-old neurospheres were adhered for 48 hours onto poly-D-lysine-coated glass coverslips in SFM devoid of growth factors. Then, to evaluate proliferation/cell death and neuronal differentiation, the neurospheres were allowed to develop for 48 hours or 7 days at 37° C. in the absence or in the presence of hemopressin (100 nM or 1 μM, Proteimax, Cotia, Brazil) and the CB1R antagonist AM 251 (1 μM, Tocris, Ellisville, Mo., USA).
Cell apoptosis was evaluated by the terminal deoxynucleotidyl transferase dUTP nick-end labeling (TUNEL) assay which is a method that detects DNA fragmentation.
SVZ cells treated with Hp for 48 h, in serum free medium devoid of growth factor (differentiation conditions), were rinsed 3×10 min with 0.15 M PBS and permeabilized in 0.25% Triton X-100 for 30 min at RT. Cells were then incubated with terminal deoxynucleotidyl transferase buffer (0.25 U/μl terminal transferase), 6 μM biotinylated dUTP, pH 7.5)) (all from Roche, Basel, Switzerland) for 1 h at 37° C. in a humidified chamber, and then rinsed in TB buffer (300 mM NaCl and 30 mM sodium citrate) for 15 min and in PBS for 5 min. Incubation with Fluorescein was performed for 1 h and nuclei counterstaining and mounting were performed as described previously.
Fluorescence images were recorded using an LSM 510 Meta confocal microscope or an Axioskop 2 Plus fluorescence microscope (both from Carl Zeiss). In all experiments, measurements were performed in the border of SVZ neurospheres where migrating cells form a cell monolayer. […] Percentages of TUNEL or BrdU immunoreactive cells in SVZ cell cultures were calculated from cell counts in five independent microscopic fields in each coverslip with a x40 objective (approximately 200 cells per field). […] For SCCl experiments, the percentage of oligodendrocytic-like responding cells (with a Thromb/Hist ratio above 1.3) was calculated on the basis of one microscopic field per coverslip, containing approximately 100 cells (magnification, ×40).
The effect of Hp on cell death was evaluated after 48 hours of treatment with Hp.

Chain of CB1R (P21554 whole entry): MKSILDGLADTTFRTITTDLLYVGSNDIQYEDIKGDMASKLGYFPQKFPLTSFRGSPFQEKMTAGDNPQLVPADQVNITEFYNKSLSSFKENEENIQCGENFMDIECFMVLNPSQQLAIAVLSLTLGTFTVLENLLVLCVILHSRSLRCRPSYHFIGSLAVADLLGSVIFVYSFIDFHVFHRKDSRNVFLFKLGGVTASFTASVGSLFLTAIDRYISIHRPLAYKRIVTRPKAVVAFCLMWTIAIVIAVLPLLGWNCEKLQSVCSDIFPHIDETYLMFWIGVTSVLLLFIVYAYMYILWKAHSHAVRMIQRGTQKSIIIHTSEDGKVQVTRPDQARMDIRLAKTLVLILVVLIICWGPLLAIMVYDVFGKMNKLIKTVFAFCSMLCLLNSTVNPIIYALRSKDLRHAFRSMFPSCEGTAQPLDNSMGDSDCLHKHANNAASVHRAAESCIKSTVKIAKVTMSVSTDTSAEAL

For `CC(C)C[C@H](NC(=O)[C@H](Cc1ccccc1)NC(=O)[C@H](CCCCN)NC(=O)[C@H](Cc1ccccc1)NC(=O)[C@H](CC(N)=O)NC(=O)[C@@H](NC(=O)[C@@H]1CCCN1)C(C)C)C(=O)N[C@@H](CO)C(=O)N[C@@H](Cc1cnc[nH]1)C(=O)O` [Hp, PVNFKFLSH], the “activity at CB1R cannabinoid receptors” value on CB1R is “CB1R receptor selective antagonist”. The “Olig2 protein levels normalized to β-actin, relative to control (100%)” value is recorded as 136.9±10.94% in the data set on Olig2 [1] (Hp 100 nM) and 158.7±23.62% in the data set with Olig2 [1] (Hp 1 μM). In addition, in the data set on SVZ cells [2], the “number of secondary neurospheres (control 100%)” value was 125.5±13.38%. The “number of Olig2-positive cells” value with Olig2 [3] is reported as “increased”. The “toxicity to the cells (TUNEL)” value in the data set on SVZ cells [4] (48 hours of treatment) is listed as “not toxic to the cells”. In addition, the TUNEL-positive nuclei in the data set on SVZ cells [4] (Hp 100 nM) is 10.26±1.69; in the data set on SVZ cells [4] (Hp 1 μM), 13.25±1.56%.
